# Article PMC4648050, “Discovery of Inhibitors of Trypanosoma brucei by Phenotypic Screening of a Focused Protein Kinase Library” (Chemmedchem, 2015)
# Key:
# Format in all cases: biochemical, human/mammalian
# [1] = target: T1, CHK1 (Homo sapiens, UniProt O14757); assay: Kinase panel: CHK1; conditions: compound at 10 μM, read-out: % of activity respect of the control
# T1 sequence (O14757 1-476): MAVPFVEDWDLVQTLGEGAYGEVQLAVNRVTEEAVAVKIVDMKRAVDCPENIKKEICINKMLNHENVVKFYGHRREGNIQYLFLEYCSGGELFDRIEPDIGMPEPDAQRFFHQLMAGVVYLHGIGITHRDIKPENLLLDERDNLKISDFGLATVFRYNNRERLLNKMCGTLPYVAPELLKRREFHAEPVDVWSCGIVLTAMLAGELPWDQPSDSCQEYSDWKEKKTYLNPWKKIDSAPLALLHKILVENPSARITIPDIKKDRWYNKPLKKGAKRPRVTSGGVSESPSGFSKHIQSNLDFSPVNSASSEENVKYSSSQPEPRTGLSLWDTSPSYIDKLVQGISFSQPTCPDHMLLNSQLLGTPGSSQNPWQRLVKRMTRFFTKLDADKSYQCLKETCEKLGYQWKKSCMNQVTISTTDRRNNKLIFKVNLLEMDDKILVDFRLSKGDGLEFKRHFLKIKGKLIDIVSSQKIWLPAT
# Method: (§1) The DDU kinase-focused compound set contains lead-like scaffolds that are designed to target protein kinases; they have kinase hinge binding motifs. Four of the 1H-imidazopyrazinones were screened against a human/mammalian kinase panel at the University of Dundee (http://www.kinase-screen.mrc.ac.uk) at a concentration of 10 μM. At the time of testing the panel contained 79 mammalian kinases selected to provide a broad coverage of the mammalian kinome (∼500 kinases in the human genome).[3] None of the compounds were active against any of the kinases at 10 μM.
# [2] = target: NEK6 (Homo sapiens, UniProt Q9HC98); assay: Kinase panel: NEK6; conditions: compound at 10 μM, read-out: % of activity respect of the control
# Chain of NEK6 (Q9HC98 whole entry): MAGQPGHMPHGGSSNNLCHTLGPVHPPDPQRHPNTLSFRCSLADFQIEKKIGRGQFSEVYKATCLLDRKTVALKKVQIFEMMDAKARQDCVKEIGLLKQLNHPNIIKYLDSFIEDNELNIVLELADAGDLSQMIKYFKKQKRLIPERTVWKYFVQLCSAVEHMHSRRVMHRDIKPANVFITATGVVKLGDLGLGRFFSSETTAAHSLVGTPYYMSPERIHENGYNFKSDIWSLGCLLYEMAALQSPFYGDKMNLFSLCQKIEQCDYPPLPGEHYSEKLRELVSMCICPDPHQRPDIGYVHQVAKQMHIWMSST
# Method: as §1
# [3] = target: CAMK1 (Homo sapiens, UniProt Q14012); assay: Kinase panel: CAMK1; conditions: compound at 10 μM, read-out: % of activity respect of the control
# Method: as §1
# [4] = target: BTK (Homo sapiens, UniProt Q06187); assay: Kinase panel: BTK; conditions: compound at 10 μM, read-out: % of activity respect of the control
# Chain of BTK (Q06187 whole entry): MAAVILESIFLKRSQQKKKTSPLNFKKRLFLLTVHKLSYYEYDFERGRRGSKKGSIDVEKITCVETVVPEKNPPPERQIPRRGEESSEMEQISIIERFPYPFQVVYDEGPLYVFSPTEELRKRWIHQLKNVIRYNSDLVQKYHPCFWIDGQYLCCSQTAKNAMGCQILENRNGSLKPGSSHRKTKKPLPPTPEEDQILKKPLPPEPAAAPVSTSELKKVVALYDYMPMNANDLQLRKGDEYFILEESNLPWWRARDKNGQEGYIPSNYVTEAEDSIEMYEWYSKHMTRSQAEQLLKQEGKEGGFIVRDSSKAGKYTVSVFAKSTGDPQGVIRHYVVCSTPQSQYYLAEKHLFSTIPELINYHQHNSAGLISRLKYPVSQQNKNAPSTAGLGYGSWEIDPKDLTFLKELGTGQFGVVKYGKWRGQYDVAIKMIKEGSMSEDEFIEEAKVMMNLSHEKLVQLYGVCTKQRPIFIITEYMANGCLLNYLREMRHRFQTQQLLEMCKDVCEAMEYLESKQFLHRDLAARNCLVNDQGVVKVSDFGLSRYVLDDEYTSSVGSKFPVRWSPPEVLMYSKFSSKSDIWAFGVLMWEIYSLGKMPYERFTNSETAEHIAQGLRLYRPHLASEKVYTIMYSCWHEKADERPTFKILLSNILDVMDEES
# Method: as §1
# [5] = target: PLK1 (Homo sapiens, UniProt P53350); assay: Kinase panel: PLK1; conditions: compound at 10 μM, read-out: % of activity respect of the control
# Method: as §1
# [6] = target: P38b MAPK (Homo sapiens, UniProt Q15759); assay: Kinase panel: P38b MAPK; conditions: compound at 10 μM, read-out: % of activity respect of the control
# Chain of P38b MAPK (Q15759 whole entry): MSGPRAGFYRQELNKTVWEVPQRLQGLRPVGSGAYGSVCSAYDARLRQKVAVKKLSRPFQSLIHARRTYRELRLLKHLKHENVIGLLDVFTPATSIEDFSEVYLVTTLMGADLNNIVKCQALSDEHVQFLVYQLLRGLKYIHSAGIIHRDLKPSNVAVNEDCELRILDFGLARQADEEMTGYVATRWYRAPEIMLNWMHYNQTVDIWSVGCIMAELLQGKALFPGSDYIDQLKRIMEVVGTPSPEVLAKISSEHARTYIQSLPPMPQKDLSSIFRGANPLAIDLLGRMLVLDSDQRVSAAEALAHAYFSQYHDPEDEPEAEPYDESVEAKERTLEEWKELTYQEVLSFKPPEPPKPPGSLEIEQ
# Method: as §1
# [7] = system: AMPK; assay: Kinase panel: AMPK; conditions: compound at 10 μM
# Method: as §1
# [8] = target: MAPKAP-K2 (Homo sapiens, UniProt P49137); assay: Kinase panel: MAPKAP-K2; conditions: compound at 10 μM, read-out: % of activity respect of the control
# Method: as §1
# [9] = target: ERK2 (Homo sapiens, UniProt P28482); assay: Kinase panel: ERK2; conditions: compound at 10 μM, read-out: % of activity respect of the control
# Chain of ERK2 (P28482 whole entry): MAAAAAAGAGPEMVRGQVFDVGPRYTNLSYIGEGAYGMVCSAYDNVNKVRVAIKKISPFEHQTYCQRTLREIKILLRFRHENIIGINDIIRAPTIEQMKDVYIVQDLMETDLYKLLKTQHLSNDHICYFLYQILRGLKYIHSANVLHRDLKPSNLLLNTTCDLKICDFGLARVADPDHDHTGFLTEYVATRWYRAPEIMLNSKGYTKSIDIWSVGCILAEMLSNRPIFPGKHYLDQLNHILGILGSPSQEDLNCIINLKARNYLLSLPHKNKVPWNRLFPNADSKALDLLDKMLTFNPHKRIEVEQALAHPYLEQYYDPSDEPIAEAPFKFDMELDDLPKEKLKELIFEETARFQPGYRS
# Method: as §1
# [10] = target: CHK2 (Homo sapiens, UniProt O96017); assay: Kinase panel: CHK2; conditions: compound at 10 μM, read-out: % of activity respect of the control
# Method: as §1
# [11] = target: PIM1 (Homo sapiens, UniProt P11309); assay: Kinase panel: PIM1; conditions: compound at 10 μM, read-out: % of activity respect of the control
# Chain of PIM1 (P11309 whole entry): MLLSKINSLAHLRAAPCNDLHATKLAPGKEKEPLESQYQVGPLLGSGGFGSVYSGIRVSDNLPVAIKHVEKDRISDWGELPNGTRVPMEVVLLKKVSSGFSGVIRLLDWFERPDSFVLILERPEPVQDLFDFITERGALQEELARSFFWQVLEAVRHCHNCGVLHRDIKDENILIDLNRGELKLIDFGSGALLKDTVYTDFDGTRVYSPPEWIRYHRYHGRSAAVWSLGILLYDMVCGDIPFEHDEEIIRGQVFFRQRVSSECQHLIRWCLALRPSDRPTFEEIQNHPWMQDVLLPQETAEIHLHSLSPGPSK
# Method: as §1
# [12] = target: HIPK2 (Homo sapiens, UniProt Q9H2X6); assay: Kinase panel: HIPK2; conditions: compound at 10 μM, read-out: % of activity respect of the control
# Method: as §1
# [13] = target: IRR (Homo sapiens, UniProt P14616); assay: Kinase panel: IRR; conditions: compound at 10 μM, read-out: % of activity respect of the control
# Chain of IRR (P14616 27-1297): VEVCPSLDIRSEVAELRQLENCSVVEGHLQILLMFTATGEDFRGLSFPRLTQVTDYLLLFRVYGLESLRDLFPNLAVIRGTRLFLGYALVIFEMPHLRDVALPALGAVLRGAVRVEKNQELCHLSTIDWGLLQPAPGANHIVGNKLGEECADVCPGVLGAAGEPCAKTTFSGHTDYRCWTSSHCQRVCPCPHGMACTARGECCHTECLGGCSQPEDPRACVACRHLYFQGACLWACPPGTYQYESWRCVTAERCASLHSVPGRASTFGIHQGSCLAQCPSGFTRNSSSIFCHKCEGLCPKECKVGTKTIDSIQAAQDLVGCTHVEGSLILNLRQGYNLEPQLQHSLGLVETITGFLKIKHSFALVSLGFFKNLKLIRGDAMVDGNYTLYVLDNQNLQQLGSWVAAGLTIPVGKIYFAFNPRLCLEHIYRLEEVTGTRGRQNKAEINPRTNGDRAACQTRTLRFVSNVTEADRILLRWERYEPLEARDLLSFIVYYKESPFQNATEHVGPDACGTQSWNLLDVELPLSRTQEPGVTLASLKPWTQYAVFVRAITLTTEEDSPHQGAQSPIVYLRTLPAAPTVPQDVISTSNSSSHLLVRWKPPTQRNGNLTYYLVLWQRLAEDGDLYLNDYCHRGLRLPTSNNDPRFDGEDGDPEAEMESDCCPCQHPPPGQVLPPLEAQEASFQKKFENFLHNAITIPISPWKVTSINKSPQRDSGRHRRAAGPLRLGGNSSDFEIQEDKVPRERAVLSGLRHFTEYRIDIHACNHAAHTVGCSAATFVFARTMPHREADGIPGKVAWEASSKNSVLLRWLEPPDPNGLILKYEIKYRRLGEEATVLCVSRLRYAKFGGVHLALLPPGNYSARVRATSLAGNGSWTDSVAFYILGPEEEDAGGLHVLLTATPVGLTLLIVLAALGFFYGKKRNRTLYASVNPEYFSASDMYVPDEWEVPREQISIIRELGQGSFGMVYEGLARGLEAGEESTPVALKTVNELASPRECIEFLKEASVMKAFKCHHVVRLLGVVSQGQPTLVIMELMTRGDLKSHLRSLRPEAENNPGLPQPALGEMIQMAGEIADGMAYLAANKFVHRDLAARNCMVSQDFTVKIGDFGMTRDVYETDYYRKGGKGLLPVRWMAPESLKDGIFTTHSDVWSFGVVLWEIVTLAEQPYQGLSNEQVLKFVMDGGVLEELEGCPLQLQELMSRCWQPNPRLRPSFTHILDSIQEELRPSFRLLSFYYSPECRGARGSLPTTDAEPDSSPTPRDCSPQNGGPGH
# Method: as §1
# [14] = target: S6K1 (Homo sapiens, UniProt P23443); assay: Kinase panel: S6K1; conditions: compound at 10 μM, read-out: % of activity respect of the control
# Method: as §1
# [15] = target: T2, MST2 (Homo sapiens, UniProt Q13188); assay: Kinase panel: MST2; conditions: compound at 10 μM, read-out: % of activity respect of the control
# T2 sequence (Q13188 1-491): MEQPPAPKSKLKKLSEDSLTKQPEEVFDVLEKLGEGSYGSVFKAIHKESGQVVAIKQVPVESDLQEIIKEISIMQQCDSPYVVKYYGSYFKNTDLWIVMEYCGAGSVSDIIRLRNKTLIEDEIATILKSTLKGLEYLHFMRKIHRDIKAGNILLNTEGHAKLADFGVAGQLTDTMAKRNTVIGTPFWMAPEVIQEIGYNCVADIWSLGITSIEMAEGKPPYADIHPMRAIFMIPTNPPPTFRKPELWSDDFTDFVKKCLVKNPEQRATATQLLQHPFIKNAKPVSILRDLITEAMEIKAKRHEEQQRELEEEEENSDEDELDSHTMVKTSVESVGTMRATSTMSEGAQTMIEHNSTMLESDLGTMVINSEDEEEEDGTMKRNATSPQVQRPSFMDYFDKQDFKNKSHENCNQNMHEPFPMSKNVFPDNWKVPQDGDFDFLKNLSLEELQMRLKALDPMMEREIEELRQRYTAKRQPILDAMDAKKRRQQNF
# Method: as §1
# [16] = target: JNK2 (Homo sapiens, UniProt P45984); assay: Kinase panel: JNK2; conditions: compound at 10 μM, read-out: % of activity respect of the control
# Chain of JNK2 (P45984 whole entry): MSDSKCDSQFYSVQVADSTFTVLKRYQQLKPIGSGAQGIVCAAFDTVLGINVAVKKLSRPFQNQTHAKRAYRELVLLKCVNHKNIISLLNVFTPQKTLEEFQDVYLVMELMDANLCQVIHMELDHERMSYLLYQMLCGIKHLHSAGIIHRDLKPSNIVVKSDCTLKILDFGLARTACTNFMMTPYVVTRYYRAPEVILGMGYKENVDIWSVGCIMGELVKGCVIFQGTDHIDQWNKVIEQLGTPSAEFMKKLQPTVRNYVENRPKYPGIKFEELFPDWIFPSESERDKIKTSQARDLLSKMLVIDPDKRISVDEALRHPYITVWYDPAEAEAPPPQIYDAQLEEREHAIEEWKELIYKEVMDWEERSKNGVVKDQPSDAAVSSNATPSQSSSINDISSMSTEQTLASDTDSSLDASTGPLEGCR
# Method: as §1
# [17] = target: PKCa (Homo sapiens, UniProt P17252); assay: Kinase panel: PKCa; conditions: compound at 10 μM, read-out: % of activity respect of the control
# Method: as §1
# [18] = target: GSK3b (Homo sapiens, UniProt P49841); assay: Kinase panel: GSK3b; conditions: compound at 10 μM, read-out: % of activity respect of the control
# Chain of GSK3b (P49841 whole entry): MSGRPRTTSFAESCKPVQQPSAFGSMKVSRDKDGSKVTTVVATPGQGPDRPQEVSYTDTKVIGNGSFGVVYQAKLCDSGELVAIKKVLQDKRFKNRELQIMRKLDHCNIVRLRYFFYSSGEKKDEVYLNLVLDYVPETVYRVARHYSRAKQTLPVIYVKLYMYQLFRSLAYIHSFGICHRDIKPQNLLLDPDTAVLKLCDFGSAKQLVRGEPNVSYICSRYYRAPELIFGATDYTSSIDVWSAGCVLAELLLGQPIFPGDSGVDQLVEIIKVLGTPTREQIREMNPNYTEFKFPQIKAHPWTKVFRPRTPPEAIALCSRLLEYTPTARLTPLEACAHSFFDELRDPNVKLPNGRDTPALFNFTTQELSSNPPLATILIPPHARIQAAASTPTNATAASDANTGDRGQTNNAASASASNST
# Method: as §1
Compound,remaining activity at 10 µM [1] [%],remaining activity at 10 µM [2] [%],remaining activity at 10 µM [3] [%],remaining activity at 10 µM [4] [%],remaining activity at 10 µM [5] [%],remaining activity at 10 µM [6] [%],% of activity respect of the control [7] [%],remaining activity at 10 µM [8] [%],remaining activity at 10 µM [9] [%],remaining activity at 10 µM [10] [%],remaining activity at 10 µM [11] [%],remaining activity at 10 µM [12] [%],remaining activity at 10 µM [13] [%],remaining activity at 10 µM [14] [%],remaining activity at 10 µM [15] [%],remaining activity at 10 µM [16] [%],remaining activity at 10 µM [17] [%],remaining activity at 10 µM [18] [%]
CC(c1ccccc1)n1c(=O)[nH]c2ncc(-c3ccc(F)cc3)nc21 (stereo not drawn) [Compound 1],100,89,87,113,111,84,97,90,65,97,80,101,96,81,86,104,101,63
O=c1[nH]c2ncc(-c3ccc(F)cc3)nc2n1CC1CC1 [Compound 10],90,86,83,104,102,101,94,104,84,97,79,69,104,92,92,97,106,37
"O=c1[nH]c2ncc(-c3ccc(F)cc3)nc2n1C1CCCCC1 [Compound 12, 1-Cyclohexyl-6-(4-fluorophenyl)-1H-imidazo[4,5-b]pyrazin-2(3H)-one]",96,94,88,111,117,122,100,101,41,96,82,97,83,97,94,93,94,70
"C[C@H](c1ccccc1)n1c(=O)[nH]c2ncc(-c3ccccc3)nc21 [Compound 14, (R)-6-Phenyl-1-(1-phenylethyl)-1H-imidazo[4,5-b]pyrazin-2(3H)-one]",94,80,72,97,104,95,95,84,121,93,72,80,112,65,78,96,98,66
